Results published in patent publication US20230404081A1, “A FORMULATION AND A METHOD FOR INDUCING DEFENSE RESPONSE IN PLANTS” (NATIONAL INSTITUTE OF PLANT GENOME RESEARCH, priority 2020, published 2023).

Key:
[1] = tested on: nitric oxide (NO); format: in vivo, tomato
[2] = tested on: salicylic acid (SA); assay: Salicylic acid (SA) estimation in distal leaves; details: distal leaf samples, 6h post-sodium dithionite treatment, vs control plants
Description: Since salicylic acid (SA) is important in the induction of systemic acquired resistance in plants, the distal leaf samples were collected for SA estimation at 6h post-sodium dithionite treatment.

[3] = tested on: tomato leaves; assay: Hypersensitive response like symptoms on tomato leaves under sodium dithionite coated Whatman filter paper stickers; format: in vivo; details: tomato leaves (Pusa Rubi), stickers on adaxial surface for 3 hours, followed till 24 h
Description: To check whether sodium dithionite is able to induce plants innate immune response, square stickers from Whatman filter papers were coated with sodium dithionite under anoxic conditions (FIG. 4). These stickers were stacked on the adaxial surface of tomato leaves for 3 hours (FIG. 5). The variety of the tomato plant used for the purposes of present disclosure is Pusa Rubi accessed from Indian Agricultural Research Institute, New Delhi, India.

## O=S([O-])S(=O)[O-].[Na+].[Na+] [sodium dithionite]
[1]; in vivo
  NO levels (DAF-FM DA) after further treatment with avirulent Pseudomonas syringae: Larger spots representing bursts of NO were observed
[1]; tomato leaves treated with sodium dithionite strips alone
  NO production (DAF-FM DA): Increased microbursts of NO
[2]
  SA accumulation in distal leaves: significant accumulation of SA
[3]
  hypersensitive response like symptoms: Hypersensitive response like symptoms started developing just after the treatment and was increased till 24 h
